Data set [1] in a line: release of N-0923 from the depot form, plasma level and bioavailability. Type of data set: in vivo. The note with it: depot formulation according to the invention, read-out: bioavailability of the pharmaceutical composition according to the invention. How it is done: Sprague-Dawley rats were given subcutaneous bolus injections of an oily N-0923 crystalline suspension of the following composition:
6, 24 and 48 hours after the 2nd and 46th administration plasma samples were taken and the N-0923 concentration was analyzed using LC-MS-MS. The readings from 6 animals were averaged.
The test conditions were identical to those in implementation example 5 except that every 48 hours a dose of 12.5 mg N-0923 per kg body weight was applied.
Readings were taken 2, 4, 8, 24, 32 and 48 hours after the 22nd application and were quantified.

Data set [2] in a line: release of N-0923 from the depots in the monkey, dose versus plasma level. Type of data set: in vivo, Cynomolgus monkeys. As to conditions: oily crystalline suspensions, FIG. 4, after 3 and 85 daily applications. How it is done: Cynomolgus monkeys were given daily subcutaneous bolus injections of oily N-0923 crystalline suspensions of the following composition: The application was performed daily in dosages of 0.25, 1 and 4 mg/kg. 2, 6 and 24 hours after the 3rd and 85th application plasma samples were taken and analyzed using LC-MS-MS.

For data set [3] the following is noted: distinct first-pass effect; cited from earlier work.
For data set [4] the following is noted: monkeys, aqueous solution; cited from earlier work.
For data set [5] the following is noted: aqueous solution (5% dextrose); cited from earlier work.

Where only a bound is given, the exact number is not on record here.

With `CCCN(CCc1cccs1)[C@H]1CCc2c(O)cccc2C1` [N-0923, S(-)-2-(N-propyl-N-2-thienylethylamino)-5-hydroxytetralin], in data set [1], the bioavailability (usually dose-corrected exposure relative to a reference, in per cent) is above 70%. Further, the “relation of active-agent plasma levels to the dose introduced in the body” value in data set [2] is “largely linear relation”. Also, the “bioavailability after oral administration” value in data set [3] is given as “about 0.5%”. In addition, the “half-time value after intravenous injection” value in data set [4] was 52 min. Moreover, in data set [5], the “time for which the subcutaneous injection was effective” value was 60 to 70 min.
